According to patent EP3153515A1, “COMPOUNDS FOR INHIBITING HEPATITIS C VIRUS, PHARMACEUTICAL COMPOSITIONS AND USES THEREOF” (priority 2014, dated 2015):
Read-outs that look alike come from different tables or passages of the source.

How the values were obtained:
Format in all cases: cell-based
HCV NS5A replicon GT-2a = experiment: HCV NS5A replicon anti-viral activity (EC50), GT-2a; conditions: Hepatitis C virus, genotype 1a / genotype 2a / genotype 6a; GT-2a replicon; read-out: Inhibitory activity against various HCV-NS5A subtypes(EC50, GT-1a to GT-6a) GT-2a
Source text: (§1) The autonomous replication level of HCV in liver cells in vitro is very low, and the only animal that can be infected by HCV is chimpanzee, therefore there is no appropriate animal model currently available for preclinical pharmacodynamic study. Some researchers have transplanted human liver tissue infected with HCV in vitro into immune deficient mice to establish an in vivo mice model, but these mice are hard to raise and the model is unstable and short of normal immunologic reaction. Moreover, the model has significant difference with the pathogenic process of hepatitis C, therefore, it has not been used for animal model to assess the action of anti-HCV medicine yet. The progress of the development of anti-viral drugs for the treatment of HCV infection had been very slow because the pathogenic mechanism and life cycle of HCV were unclear before 1999 due to the lack of cell culture system for effective multiplication of HCV. But researchers managed to achieve a breakthrough in 1999 after numerous attempts. An effective cell culture model-replicon system in which HCV is capable of autonomous replication in transfected human hepatic carcinoma cell line Huh-7 had been established in that year on the basis of subgenomic HCV RNA built with genetic engineering.
(§2) The above-mentioned cell culture model-replicon system which has been widely accepted in the industry is used in this invention for ex vivo experiments and subsequent assessment of drugs based on the experiment results.
(§3) The therapeutic effect of the compounds of this invention on HCV infection can be preliminarily assessed through the following preclinical in vitro inhibitory action test and can be further confirmed in clinical trials. Other methods used in the invention are also quite familiar to professionals in this field with ordinary technical knowledge. Method for testing the anti-viral activity(EC50) in HCV NS5A replicon system: • The viral replication level in infected cells was determined by testing Renilla luciferase with the newly established dual-reporter gene replicon system. There was a good linear relation between the expression level of the reporter gene and the HCV RNA replication level and viral protein expression level. The anti-viral activity was determined for 3 replicates in 3 replicate cells at five(5) 1:2 diluted concentration gradients, with 1 to 2 positive controls. The EC50 of the compounds was calculated in the end.
(§4) The compounds of the invention, or their stereoisomers, tautomers, esterified or amidated prodrugs, or pharmaceutically acceptable salts and mixtures have been subjected to test to determined their therapeutic effects in the treatment of HCV infection. […] Moreover, the results of 6a-6ep(Ia), 6fa-6gq(Ib) and reference compounds Ref-1(BMS-790052), Ref-2(GS5885), Ref-3 in HCV-NS5 inhibition test reveal that the cyclopentanyl/hexamethyleneamino radical containing linear polypeptide compounds 6a-6ep, 6fa-6gq and reference compounds Ref-1, Ref-2, Ref-3 have good HCV inhibitory results. […] The replicons GT-1a, GT-lb, GT-2a, GT-3a, GT-4a, GT-5a and GT-6a used for the test are routine replicons commercially available in this field. Table 1: HCV NS5A replicon inhibitory activity test results of compounds (6a-6gq) of the invention

HCV NS5A replicon GT-5a = experiment: HCV NS5A replicon anti-viral activity (EC50), GT-5a; conditions: Hepatitis C virus, genotype 1a / genotype 5a / genotype 6a, read-out: Inhibitory activity against various HCV-NS5A subtypes(EC50, GT-1a to GT-6a) GT-5a
Source text: as §1, §2, §3, §4

HCV NS5A replicon GT-1a = experiment: HCV NS5A replicon anti-viral activity (EC50), dual-reporter Renilla luciferase, GT-1a; conditions: for EC50: Hepatitis C virus
Source text: as §1, §2, §3, §4

HCV NS5A replicon GT-lb = experiment: HCV NS5A replicon anti-viral activity (EC50), GT-1b; conditions: Hepatitis C virus, genotype 1a / genotype 6a, read-out: Inhibitory activity against various HCV-NS5A subtypes(EC50, GT-1a to GT-6a) GT-lb
Source text: as §1, §2, §3, §4

HCV NS5A replicon GT-3a = experiment: HCV NS5A replicon anti-viral activity (EC50), GT-3a; conditions: Hepatitis C virus, genotype 1a / genotype 3a / genotype 6a, read-out: Inhibitory activity against various HCV-NS5A subtypes(EC50, GT-1a to GT-6a) GT-3a
Source text: as §1, §2, §3, §4

HCV NS5A replicon GT-4a = experiment: HCV NS5A replicon anti-viral activity (EC50), GT-4a; conditions: Hepatitis C virus, genotype 1a / genotype 4a / genotype 6a, read-out: Inhibitory activity against various HCV-NS5A subtypes(EC50, GT-1a to GT-6a) GT-4a
Source text: as §1, §2, §3, §4

HCV NS5A replicon GT-6a = experiment: HCV NS5A replicon anti-viral activity (EC50), GT-6a; conditions: Hepatitis C virus, genotype 1a / genotype 6a; GT-6a replicon; read-out: Inhibitory activity against various HCV-NS5A subtypes(EC50, GT-1a to GT-6a) GT-6a
Source text: as §1, §2, §3, §4

[1] = GT1A, GT-1a replicon, read-out: NS5A Inhibitory Activity (EC50 of GT-1a subtype inhibition)
[2] = genotype 1a / genotype 6a, read-out: Inhibitory activity against various HCV-NS5A subtypes(EC50, GT-1a to GT-6a) GT-1a

Row | SMILES | EC50 (HCV NS5A replicon GT-2a) | EC50 (HCV NS5A replicon GT-5a) | EC50 (HCV NS5A replicon GT-1a; [1]) | EC50 (HCV NS5A replicon GT-1a; [2]) | EC50 (HCV NS5A replicon GT-lb) | EC50 (HCV NS5A replicon GT-3a) | EC50 (HCV NS5A replicon GT-4a) | EC50 (HCV NS5A replicon GT-6a) | inhibitory activity compared with Ref-1(BMS-790052), Ref-2(GS5885), Ref-3 and Ref-4 (in words) (HCV NS5A replicon GT-1a; comparison drawn from Table 2)
1 | COC(=O)N[C@H](C(=O)N1CCC[C@H]1c1nc(-c2ccc(-c3ccc(-c4cnc([C@@H]5CCCN5C(=O)[C@@H](NC(=O)OC)C(C)C)[nH]4)cc3)cc2)c[nH]1)C(C)C [Ref-1, BMS-790052, reference compound] | 0.029 nM | 0.036 nM | 0.001 to 0.999 nM | 0.052 nM | 0.021 nM | 0.218 nM | 0.011 nM | 0.118 nM | –
2 | COC(=O)NC(C(=O)N1CC=C[C@H]1c1ncc(-c2ccc(-c3cc4sc(-c5cnc([C@@H]6CCCN6C(=O)[C@@H](NC(=O)OC)C(C)C)[nH]5)cc4s3)cc2)[nH]1)c1ccccc1 (stereo partly drawn) [6cb] | – | – | > 50 nM | – | – | – | – | – | –
3 | COC(=O)N[C@H](C(=O)N1CC=C[C@H]1c1ncc(-c2ccc(-c3cc4sc(-c5cnc([C@@H]6CCCN6C(=O)[C@H](NC(=O)OC)c6ccccc6)[nH]5)cc4s3)cc2)[nH]1)C(C)C [6fd] | 0.007 nM | 0.013 nM | 0.001 to 0.999 nM | 0.02 nM | 0.005 nM | 0.026 nM | 0.005 nM | 0.055 nM | –
4 | COC(=O)N[C@H](C(=O)N1CCC[C@H]1c1ncc(-c2csc3c(-c4ccc5nc([C@@H]6C=CCN6C(=O)[C@H](NC(=O)OC)c6ccccc6)[nH]c5c4)csc23)[nH]1)C(C)C [6gj] | – | – | 0.001 to 0.999 nM | – | – | – | – | – | –
5 | COC(=O)N[C@H](C(=O)N1CCC[C@H]1c1nc2ccc(-c3csc4c(-c5ccc(-c6cnc([C@@H]7C=CCN7C(=O)[C@H](NC(=O)OC)c7ccc(C)cc7)[nH]6)cc5)csc34)cc2[nH]1)C(C)C [6fw] | – | – | 0.001 to 0.999 nM | – | – | – | – | – | –
6 | COC(=O)N[C@H](C(=O)N1CCC[C@H]1c1ncc(-c2ccc(-c3cc4sc(-c5cnc([C@@H]6C=CCN6C(=O)[C@H](NC(=O)OC)c6ccccc6)[nH]5)cc4s3)cc2)[nH]1)C(C)C [6fg] | 0.008 nM | 0.029 nM | 0.001 to 0.999 nM | 0.009 nM | 0.013 nM | 0.024 nM | 0.012 nM | 0.023 nM | significantly superior
7 | CC(C)[C@H](NC(=O)N(C)C)C(=O)N1CC=C[C@H]1c1ncc(-c2ccc(-c3ccc(-c4cnc([C@@H]5CCCN5C(=O)[C@@H](NC(=O)N(C)C)C(C)C)[nH]4)cc3)cc2)[nH]1 [6cg] | – | – | 0.001 to 0.999 nM | – | – | – | – | – | –
8 | COC(=O)N[C@H](C(=O)N1CN(C(=O)N2Cc3ccc4c(c3C2)OCO4)C[C@H]1c1ncc(-c2ccc(-c3cccc4c(-c5cnc([C@@H]6CCCN6C(=O)[C@@H](NC(=O)OC)C(C)C)[nH]5)cccc34)cc2)[nH]1)C(C)C [6ee] | – | – | 0.001 to 0.999 nM | – | – | – | – | – | –
9 | COC(=O)N[C@H](C(=O)N1CCCC[C@H]1c1nc(-c2ccc(-c3ccc(-c4c[nH]c([C@@H]5C[C@H](OC(=O)N6Cc7cc8c(cc7C6)OCO8)CN5C(=O)[C@@H](NC(=O)OC)C(C)C)n4)cc3)cc2)c[nH]1)C(C)C [6ac] | – | – | 0.001 to 0.999 nM | – | – | – | – | – | –
10 | COC(=O)N[C@H](C(=O)N1CC=C[C@H]1c1ncc(-c2ccc(-c3ccc(-c4cnc([C@@H]5CN(S(=O)(=O)C(C)C)CN5C(=O)[C@@H](NC(=O)OC)C(C)C)[nH]4)cc3)cc2)[nH]1)C(C)C [6dd] | – | – | 0.001 to 0.999 nM | – | – | – | – | – | –
11 | COC(=O)NC(C(=O)N1CC=C[C@H]1c1nc(-c2ccc(-c3cc4sc(-c5c[nH]c([C@@H]6C=CCN6C(=O)C(NC(=O)OC)c6ccccc6)n5)cc4s3)cc2)c[nH]1)c1ccccc1 (stereo partly drawn) [6cd] | – | – | > 50 nM | – | – | – | – | – | –
12 | COC(=O)N[C@H](C(=O)N1CC=C[C@H]1c1ncc(-c2ccc(-c3ccc(-c4c[nH]c([C@@H]5CCCN5C(=O)[C@@H](NC(=O)OC)C(C)C)n4)cc3)cc2)[nH]1)C(C)C [6ba] | 0.016 nM | 0.023 nM | 0.001 to 0.999 nM | 0.039 nM | 0.012 nM | 0.173 nM | 0.01 nM | 0.221 nM | –
13 | COC(=O)N[C@H](C(=O)N1CC=C[C@H]1c1nc2ccc(-c3ccc(-c4ccc5nc([C@@H]6CCCN6C(=O)[C@@H](NC(=O)OC)C(C)C)[nH]c5c4)c4c3CC3(CCCCC3)C4)cc2[nH]1)C(C)C [6en] | – | – | 1 to 49.9 nM | – | – | – | – | – | –
